According to paper PMC5918173, “Characterization of Transglutaminase 2 activity inhibitors in monocytes in vitro and their effect in a mouse model for multiple sclerosis” (PLoS ONE, 2018):
pIC50: −log10 of the molar value.

Target: T1, human TG2 in THP-1/TG2 macrophages (Homo sapiens, UniProt P21980)
T1 construct: expressed in transfected cells; host or cells: THP-1 (TIB-202, ATCC) stably transduced with lentiviral pCDH-hTG2, PMA-differentiated, retinoic acid-stimulated
T1 sequence (P21980 1-687): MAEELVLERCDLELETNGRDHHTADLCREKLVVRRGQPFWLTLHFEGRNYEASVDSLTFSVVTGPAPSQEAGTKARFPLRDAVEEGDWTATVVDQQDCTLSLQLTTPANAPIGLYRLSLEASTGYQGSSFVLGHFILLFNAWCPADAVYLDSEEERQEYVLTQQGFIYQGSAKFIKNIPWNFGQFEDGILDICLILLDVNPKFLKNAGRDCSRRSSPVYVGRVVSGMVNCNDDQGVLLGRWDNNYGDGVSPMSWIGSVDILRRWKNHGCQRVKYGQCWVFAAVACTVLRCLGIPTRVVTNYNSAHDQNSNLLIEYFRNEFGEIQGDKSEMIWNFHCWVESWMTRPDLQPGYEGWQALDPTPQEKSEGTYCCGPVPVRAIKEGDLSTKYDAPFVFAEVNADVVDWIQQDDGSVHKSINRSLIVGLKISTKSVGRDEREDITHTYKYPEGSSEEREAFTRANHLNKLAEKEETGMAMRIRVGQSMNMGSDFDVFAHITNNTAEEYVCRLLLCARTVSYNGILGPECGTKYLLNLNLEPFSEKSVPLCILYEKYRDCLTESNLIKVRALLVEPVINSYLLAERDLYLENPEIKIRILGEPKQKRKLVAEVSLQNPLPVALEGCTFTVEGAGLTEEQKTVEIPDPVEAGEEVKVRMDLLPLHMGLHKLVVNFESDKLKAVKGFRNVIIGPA
Test: Cellular inhibition of TG activity in THP-1/TG2 cells (BAP incorporation)
Format: cell-based
Settings: TG2 overexpressing THP-1 macrophages, Fig 2D
Method: Human monocytic THP-1 cells (TIB-202, ATCC) were transduced with a lentiviral vector (pCDH-hTG2, gift from Prof K. Mehta, University of Texas, USA) to overexpress human TG2, to ensure high protein levels in addition to their constitutive expression that can be inhibited. To obtain a stable TG2 overexpressing cell line, transduced cells (THP-1/pCDH-hTG2 (THP-1/TG2)) were positively selected with puromycin and cultured at 37°C and 5% CO2 in air in RPMI-1640 medium (Gibco) supplemented with 10% fetal calf serum (FCS; Gibco), and 50 Units/ml of penicillin and 50 μg/ml streptomycin (Gibco).
THP-1/TG2 cells cultured with 3% FCS were differentiated into macrophages with 250 nM phorbol-12-myristate-13-acetate (Sigma) for 48 h hours. Simultaneously, the cells were stimulated with 1 μM retinoic acid (Fluka) as TG2 expression inducer to ensure maximal TG2 expression and activity. The in vitro TG activity inhibition assay was performed as previously described. In detail, the cells were washed with serum free medium and incubated for 4 h (37°C, 5% CO2) with 1 mM of the TG substrate 5-(biotinamido) pentylamine (BAP, Pierce) in serum free medium. […] The total protein concentration was determined with the BCA method (Pierce, according to protocol) and adjusted to the same concentration in all samples. […] The optical density at 492 nm was measured.

pIC50 (read-out: IC50 cellular TG2 transamidating activity) | effect on cellular TG2 activity (0.03 to 100 μM) | SMILES
5.74 |  | C=CC(=O)NC1CCN(S(=O)(=O)c2cccc3c(NC(=O)c4ccc(OC)c(OC)c4)cccc23)CC1 [BJJF078, 3,4-Dimethoxy-N-(5-[4-(acryloylamino)piperidine-1-sulfonyl]-naphthalen-1-yl)-benzamide]
 | no effect | O=C(NCC1CC(Br)=NO1)C1CCCN1C(=O)OCc1cnc2ccccc2c1 (centres unmarked) [ERW1041E, 2-[(3-Bromo-4,5-dihydro-isoxazol-5-ylmethyl)-carbamoyl]-pyrrolidine-1—carboxylic acid quinolin-3-ylmethyl ester]
